Data as given in PubChem BioAssay AID2060621 (Molecular Pharmacology Branch, DTP, NCI, 2025).

System: 324938-238-R-J1-PDC complex spheroids viability
Experiment: Anticancer human tumor 324938-238-R-J1-PDC patient-derived bladder carcinoma cell line growth inhibition [CLK]
Details: for IC50: curve of first compound; for viability, T/C: stronger effect = lower value
Procedure, shortened: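 Patient-derived tumor cells grown as complex spheroids with HUVEC endothelial cells and mesenchymal stem cells, treated with drug combinations. Concentrations descend in half-log steps from near clinical Cmax, or from 10 microM if Cmax unknown.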

[1] = second compound 0.0316 µM, first compound 0.00949 µM
[2] = second compound 0.0316 µM, first compound 0.03 µM
[3] = second compound 0.0316 µM, first compound 0.0949 µM
[4] = second compound 0.0316 µM, first compound 0.3 µM
[5] = second compound 0.1 µM, first compound 0.00949 µM
[6] = second compound 0.1 µM, first compound 0.03 µM
[7] = second compound 0.1 µM, first compound 0.0949 µM
[8] = second compound 0.1 µM, first compound 0.3 µM
[9] = second compound 0.316 µM, first compound 0.00949 µM
[10] = second compound 0.316 µM, first compound 0.03 µM
[11] = second compound 0.316 µM, first compound 0.0949 µM
[12] = second compound 0.316 µM, first compound 0.3 µM
[13] = second compound 1 µM, first compound 0.00949 µM
[14] = second compound 1 µM, first compound 0.03 µM
[15] = second compound 1 µM, first compound 0.0949 µM
[16] = second compound 1 µM, first compound 0.3 µM
[17] = second compound 3.16 µM, first compound 0.00949 µM
[18] = second compound 3.16 µM, first compound 0.03 µM
[19] = second compound 3.16 µM, first compound 0.0949 µM
[20] = second compound 3.16 µM, first compound 0.3 µM
[21] = second compound 10 µM, first compound 0.00949 µM
[22] = second compound 10 µM, first compound 0.03 µM
[23] = second compound 10 µM, first compound 0.0949 µM
[24] = second compound 10 µM, first compound 0.3 µM
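Further: viability read after seven days of drug exposure.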
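Wherever viability, T/C is given: 100% = DMSO vehicle control wells.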

With `C=CC(=O)Nc1cc(Nc2nccc(-c3cn(C)c4ccccc34)n2)c(OC)cc1N(C)CCN(C)C` + CN1CCN(c2cc(C(=O)Nc3cc4cc(-c5cnn(C)c5)ccc4cn3)ccn2)CC1 the IC50 (second compound 0.0316 µM) was 69.5 nM, the IC50 (second compound 0.1 µM) was 6.25 nM and the IC50 (second compound 0.316 µM) was < 0.949 nM. The IC50 (second compound 1 µM) was < 0.949 nM, the IC50 (second compound 3.16 µM) was < 0.949 nM and the IC50 (second compound 10 µM) was < 0.949 nM. The viability, T/C (second compound 0.0316 µM, first compound 0.000949 µM) was 80%, the viability, T/C (second compound 0.0316 µM, first compound 0.003 µM) was 77.5% and the viability, T/C [1] was 69.7%. The viability, T/C [2] was 66.3%, the viability, T/C [3] was 43.7% and the viability, T/C [4] was 25.3%. For the same compound, the viability, T/C (second compound 0.1 µM, first compound 0.000949 µM) was 60.3%, the viability, T/C (second compound 0.1 µM, first compound 0.003 µM) was 48.5% and the viability, T/C [5] was 51%. It also gave a viability, T/C [6] of 39%, a viability, T/C [7] of 33% and a viability, T/C [8] of 19.1%. The viability, T/C (second compound 0.316 µM, first compound 0.000949 µM) was 19.7%, the viability, T/C (second compound 0.316 µM, first compound 0.003 µM) was 22.8% and the viability, T/C [9] was 20.9%. For the same compound, the viability, T/C [10] was 21.8%, the viability, T/C [11] was 17.1% and the viability, T/C [12] was 15.7%. The viability, T/C (second compound 1 µM, first compound 0.000949 µM) was 1.22%, the viability, T/C (second compound 1 µM, first compound 0.003 µM) was 1.22% and the viability, T/C [13] was 1.43%. It also gave a viability, T/C [14] of 1.11%, a viability, T/C [15] of 1.21% and a viability, T/C [16] of 0.28%. For the same compound, the viability, T/C (second compound 3.16 µM, first compound 0.000949 µM) was 0.13%, the viability, T/C (second compound 3.16 µM, first compound 0.003 µM) was 0.13% and the viability, T/C [17] was 0.19%. It also gave a viability, T/C [18] of 0.14%, a viability, T/C [19] of 0.11% and a viability, T/C [20] of 0.16%. The viability, T/C (second compound 10 µM, first compound 0.000949 µM) was 0.15%, the viability, T/C (second compound 10 µM, first compound 0.003 µM) was 0.16% and the viability, T/C [21] was 0.21%. It also gave a viability, T/C [22] of 0.16%, a viability, T/C [23] of 0.18% and a viability, T/C [24] of 0.21%.
`NC(=O)C(=Cn1cnc(-c2cc(C(F)(F)F)cc(C(F)(F)F)c2)n1)c1cncnc1` + CN1CCN(c2cc(C(=O)Nc3cc4cc(-c5cnn(C)c5)ccc4cn3)ccn2)CC1 was tested, and the IC50 (second compound 0.0316 µM) was 44.9 nM, the IC50 (second compound 0.1 µM) was < 9.49 nM and the IC50 (second compound 0.316 µM) was < 9.49 nM. For the same compound, the IC50 (second compound 1 µM) was < 9.49 nM, the IC50 (second compound 3.16 µM) was < 9.49 nM and the IC50 (second compound 10 µM) was < 9.49 nM. It also gave a viability, T/C [1] of 73.6%, a viability, T/C [2] of 56.1% and a viability, T/C [3] of 37.3%. It also gave a viability, T/C [4] of 11.8%, a viability, T/C (second compound 0.0316 µM, first compound 0.949 µM) of 4.81% and a viability, T/C (second compound 0.0316 µM, first compound 3 µM) of 2.71%. For the same compound, the viability, T/C [5] was 47.5%, the viability, T/C [6] was 37.8% and the viability, T/C [7] was 26%. For the same compound, the viability, T/C [8] was 8.9%, the viability, T/C (second compound 0.1 µM, first compound 0.949 µM) was 3.44% and the viability, T/C (second compound 0.1 µM, first compound 3 µM) was 1.05%. The viability, T/C [9] was 21.6%, the viability, T/C [10] was 13.4% and the viability, T/C [11] was 11.1%. For the same compound, the viability, T/C [12] was 1.12%, the viability, T/C (second compound 0.316 µM, first compound 0.949 µM) was 0.14% and the viability, T/C (second compound 0.316 µM, first compound 3 µM) was 0.06%. The viability, T/C [13] was 0.21%, the viability, T/C [14] was 0.17% and the viability, T/C [15] was 0.15%. The viability, T/C [16] was 0.09%, the viability, T/C (second compound 1 µM, first compound 0.949 µM) was 0.08% and the viability, T/C (second compound 1 µM, first compound 3 µM) was 0.09%. The viability, T/C [17] was 0.09%, the viability, T/C [18] was 0.13% and the viability, T/C [19] was 0.16%. It also gave a viability, T/C [20] of 0.12%, a viability, T/C (second compound 3.16 µM, first compound 0.949 µM) of 0.12% and a viability, T/C (second compound 3.16 µM, first compound 3 µM) of 0.11%. For the same compound, the viability, T/C [21] was 0.07%, the viability, T/C [22] was 0.12% and the viability, T/C [23] was 0.23%. It also gave a viability, T/C [24] of 0.16%, a viability, T/C (second compound 10 µM, first compound 0.949 µM) of 0.18% and a viability, T/C (second compound 10 µM, first compound 3 µM) of 0.21%.
In the case of `Nc1ccccc1NC(=O)c1ccc(CNC(=O)OCc2cccnc2)cc1` + CN1CCN(c2cc(C(=O)Nc3cc4cc(-c5cnn(C)c5)ccc4cn3)ccn2)CC1, the IC50 (second compound 0.0316 µM) is reported as 1200 nM, the IC50 (second compound 0.1 µM) is reported as 173 nM and the IC50 (second compound 0.316 µM) is reported as < 31.6 nM. The IC50 (second compound 1 µM) was < 31.6 nM, the IC50 (second compound 3.16 µM) was < 31.6 nM and the IC50 (second compound 10 µM) was < 31.6 nM. The viability, T/C (second compound 0.0316 µM, first compound 0.0316 µM) was 80.2%, the viability, T/C (second compound 0.0316 µM, first compound 0.1 µM) was 88.1% and the viability, T/C (second compound 0.0316 µM, first compound 0.316 µM) was 70.5%. It also gave a viability, T/C (second compound 0.0316 µM, first compound 1 µM) of 52.5%, a viability, T/C (second compound 0.0316 µM, first compound 3.16 µM) of 32.2% and a viability, T/C (second compound 0.0316 µM, first compound 10 µM) of 14.2%. It also gave a viability, T/C (second compound 0.1 µM, first compound 0.0316 µM) of 58.5%, a viability, T/C (second compound 0.1 µM, first compound 0.1 µM) of 50% and a viability, T/C (second compound 0.1 µM, first compound 0.316 µM) of 44.8%. The viability, T/C (second compound 0.1 µM, first compound 1 µM) was 39.6%, the viability, T/C (second compound 0.1 µM, first compound 3.16 µM) was 30.6% and the viability, T/C (second compound 0.1 µM, first compound 10 µM) was 7.44%. For the same compound, the viability, T/C (second compound 0.316 µM, first compound 0.0316 µM) was 21.6%, the viability, T/C (second compound 0.316 µM, first compound 0.1 µM) was 26% and the viability, T/C (second compound 0.316 µM, first compound 0.316 µM) was 20.6%. The viability, T/C (second compound 0.316 µM, first compound 1 µM) was 21.1%, the viability, T/C (second compound 0.316 µM, first compound 3.16 µM) was 24.1% and the viability, T/C (second compound 0.316 µM, first compound 10 µM) was 0.19%. The viability, T/C (second compound 1 µM, first compound 0.0316 µM) was 1.99%, the viability, T/C (second compound 1 µM, first compound 0.1 µM) was 3.65% and the viability, T/C (second compound 1 µM, first compound 0.316 µM) was 4%. The viability, T/C (second compound 1 µM, first compound 1 µM) was 2.6%, the viability, T/C (second compound 1 µM, first compound 3.16 µM) was 0.16% and the viability, T/C (second compound 1 µM, first compound 10 µM) was 0.13%. The viability, T/C (second compound 3.16 µM, first compound 0.0316 µM) was 0.13%, the viability, T/C (second compound 3.16 µM, first compound 0.1 µM) was 0.14% and the viability, T/C (second compound 3.16 µM, first compound 0.316 µM) was 0.15%. It also gave a viability, T/C (second compound 3.16 µM, first compound 1 µM) of 0.1%, a viability, T/C (second compound 3.16 µM, first compound 3.16 µM) of 0.1% and a viability, T/C (second compound 3.16 µM, first compound 10 µM) of 0.16%. The viability, T/C (second compound 10 µM, first compound 0.0316 µM) was 0.06%, the viability, T/C (second compound 10 µM, first compound 0.1 µM) was 0.13% and the viability, T/C (second compound 10 µM, first compound 0.316 µM) was 0.14%. The viability, T/C (second compound 10 µM, first compound 1 µM) was 0.13%, the viability, T/C (second compound 10 µM, first compound 3.16 µM) was 0.18% and the viability, T/C (second compound 10 µM, first compound 10 µM) was 0.2%.
